Patent US20260226086A1, “COMPOUNDS AND COMPOSITIONS AS STAT3 DEGRADERS AND USES THEREOF” (REGENTS OF THE UNIVERSITY OF MICHIGAN, priority 2023, published 2026)
pIC50: −log10 of the molar value.

How the values were obtained:
Format in all cases: cell-based
[1] = test system: SUP-M2 cells; test: CellTiter-Glo 2.0 cell viability assay, SUP-M2; conditions: 4 days
Outline: (§1)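 IC50 derived by four-parameter nonlinear regression on triplicate luminescence data (CellTiter-Glo 2.0), normalised to untreated controls. Cells plated at 1000/well received serial compound dilutions for 4 days at 37 °C with 5% CO2.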

[2] = test system: SU-DHL-1 cells; test: CellTiter-Glo 2.0 cell viability assay, SU-DHL-1; conditions: Homo sapiens, 96 h, 4 days
Outline: as §1

[3] = target: T1, STAT3 (Homo sapiens, UniProt P40763); test: HiBiT assay, STAT3 degradation in STAT3-HiBiT KI HeLa cells; conditions: 24 h; for DC50: read-out: STAT3 Degradation (HeLa 24 h HiBit) DC50
T1 construct: This cell line is a clone created by using CRISPR-Cas9 to fuse HiBiT to the 3′ end of STAT3 in HeLa cells; host or cells: STAT3-HiBiT KI HeLa cell line (CRISPR-Cas9 knock-in clone)
Outline: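 Luminescence of endogenous HiBiT-tagged STAT3 (C-terminal knock-in, HeLa) was measured with lytic Nano-Glo detection after 24 h exposure to serially diluted compounds at 37 °C. Cells plated at 20000/well; untreated cells served as control, and triplicate means were fit by four-parameter regression to give IC50.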

T1 sequence (P40763 whole entry): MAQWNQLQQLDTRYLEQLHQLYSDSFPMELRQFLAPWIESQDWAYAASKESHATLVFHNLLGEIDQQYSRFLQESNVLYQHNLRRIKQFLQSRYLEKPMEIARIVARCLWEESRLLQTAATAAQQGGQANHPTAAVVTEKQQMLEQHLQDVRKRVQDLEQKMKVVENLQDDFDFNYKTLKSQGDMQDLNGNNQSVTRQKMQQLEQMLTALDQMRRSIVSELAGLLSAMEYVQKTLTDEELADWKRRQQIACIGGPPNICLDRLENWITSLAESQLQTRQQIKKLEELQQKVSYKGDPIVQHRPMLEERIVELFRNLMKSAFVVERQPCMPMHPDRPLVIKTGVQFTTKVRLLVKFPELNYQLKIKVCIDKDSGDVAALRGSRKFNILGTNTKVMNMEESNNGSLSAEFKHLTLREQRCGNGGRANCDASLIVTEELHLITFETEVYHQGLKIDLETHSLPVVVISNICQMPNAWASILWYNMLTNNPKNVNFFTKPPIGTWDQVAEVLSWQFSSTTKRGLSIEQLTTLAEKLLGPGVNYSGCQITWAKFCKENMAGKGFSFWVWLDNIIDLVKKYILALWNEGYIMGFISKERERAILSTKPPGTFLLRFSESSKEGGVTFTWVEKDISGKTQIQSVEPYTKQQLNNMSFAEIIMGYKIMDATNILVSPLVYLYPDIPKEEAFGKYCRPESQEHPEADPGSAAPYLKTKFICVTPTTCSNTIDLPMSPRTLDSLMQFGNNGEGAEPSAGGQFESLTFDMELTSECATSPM

| Compound | pIC50 ([1]; SUP-M2, 96 h) | pIC50 [2] | Dmax at 1 µM [3] [%] | DC50 [3] [µM] | pIC50 [1] |
| --- | --- | --- | --- | --- | --- |
| CC(=O)N1CC[C@H]2CC[C@@H](C(=O)N[C@@H](CCC(N)=O)COc3cccc(CCCc4cn([C@H](C(=O)N5C[C@H](O)C[C@H]5C(=O)N[C@@H](CN5CCOCC5)c5ccc(-c6scnc6C)cc5)C(C)(C)C)nn4)c3Cl)N2C(=O)[C@@H](NC(=O)c2cc3cc(C(=O)P(=O)(O)O)ccc3[nH]2)C1 [Compound 5, (2-(((5S,8S,10aR)-3-acetyl-8-(((S)-5-amino-1-(2-chloro-3-(3-(1-((S)-1-((2S,4R)-4-hydroxy-2-(((R)-1-(4-(4-methylthiazol-5-yl)phenyl)-2-morpholinoethyl)carbamoyl)pyrrolidin-1-yl)-3,3-dimethyl-1-oxobutan-2-yl)-1H-1,2,3-triazol-4-yl)propyl)phenoxy)-5-oxopentan-2-yl)carbamoyl)-6-oxodecahydropyrrolo[1,2-a][1,5]diazocin-5-yl)carbamoyl)-1H-indole-5-carbonyl)phosphonic acid] | 7.00 to 8.00 | 7.00 to 8.00 | > 80 | 0.01 to 0.1 |  |
| Cc1ncsc1-c1ccc([C@H](C)NC(=O)[C@@H]2C[C@@H](O)CN2C(=O)[C@@H](n2cc(CCCCC(=O)N3CC[C@H]4CC[C@@H](C(=O)N[C@@H](CCC(N)=O)C(=O)NC(c5ccccc5)c5ccccc5)N4C(=O)[C@@H](NC(=O)c4cc5cc(C(=O)P(=O)(O)O)ccc5[nH]4)C3)nn2)C(C)(C)C)cc1 [Compound 13, (2-(((5S,8S,10aR)-8-(((S)-5-amino-1-(benzhydrylamino)-1,5-dioxopentan-2-yl)carbamoyl)-3-(5-(1-((S)-1-((2S,4R)-4-hydroxy-2-(((S)-1-(4-(4-methylthiazol-5-yl)phenyl)ethyl)carbamoyl)pyrrolidin-1-yl)-3,3-dimethyl-1-oxobutan-2-yl)-1H-1,2,3-triazol-4-yl)pentanoyl)-6-oxodecahydropyrrolo[1,2-a][1,5]diazocin-5-yl)carbamoyl)-1H-indole-5-carbonyl)phosphonic acid] |  | 6.00 to 7.00 | > 80 | 0.01 to 0.1 | 7.00 to 8.00 |
| Cc1ncsc1-c1ccc([C@H](C)NC(=O)[C@@H]2C[C@@H](O)CN2C(=O)[C@@H](NC(=O)CCCCCCCCC(=O)N2CC[C@H]3CC[C@@H](C(=O)N[C@@H](CCC(N)=O)C(=O)NC(c4ccccc4)c4ccccc4)N3C(=O)[C@@H](NC(=O)c3cc4cc(C(=O)P(=O)(O)O)ccc4[nH]3)C2)C(C)(C)C)cc1 [Compound 53, (2-(((5S,8S,10aR)-8-(((S)-5-amino-1-(benzhydrylamino)-1,5-dioxopentan-2-yl)carbamoyl)-3-(10-(((S)-1-((2S,4R)-4-hydroxy-2-(((S)-1-(4-(4-methylthiazol-5-yl)phenyl)ethyl)carbamoyl)pyrrolidin-1-yl)-3,3-dimethyl-1-oxobutan-2-yl)amino)-10-oxodecanoyl)-6-oxodecahydropyrrolo[1,2-a][1,5]diazocin-5-yl)carbamoyl)-1H-indole-5-carbonyl)phosphonic acid] | 6.00 to 7.00 | 6.00 to 7.00 |  | 0.1 to 1 |  |
| Cc1ncsc1-c1ccc([C@H](C)NC(=O)[C@@H]2C[C@@H](O)CN2C(=O)[C@@H](n2cc(CCCc3cccc(OC[C@H](CCC(N)=O)NC(=O)[C@@H]4CC[C@@H]5CCN(C(=O)CCN6CCN(C)CC6)C[C@H](NC(=O)c6cc7cc(C(=O)P(=O)(O)O)ccc7[nH]6)C(=O)N54)c3Cl)nn2)C(C)(C)C)cc1 [Compound 33, (2-(((5S,8S,10aR)-8-(((S)-5-amino-1-(2-chloro-3-(3-(1-((S)-1-((2S,4R)-4-hydroxy-2-(((S)-1-(4-(4-methylthiazol-5-yl)phenyl)ethyl)carbamoyl)pyrrolidin-1-yl)-3,3-dimethyl-1-oxobutan-2-yl)-1H-1,2,3-triazol-4-yl)propyl)phenoxy)-5-oxopentan-2-yl)carbamoyl)-3-(3-(4-methylpiperazin-1-yl)propanoyl)-6-oxodecahydropyrrolo[1,2-a][1,5]diazocin-5-yl)carbamoyl)-1H-indole-5-carbonyl)phosphonic acid] | 6.00 to 7.00 | 7.00 to 8.00 | > 80 | 0.01 to 0.1 |  |
| Cc1ncsc1-c1ccc([C@H](C)NC(=O)[C@@H]2C[C@@H](O)CN2C(=O)[C@@H](n2cc(CCCCCCCC(=O)N3CC[C@H]4CC[C@@H](C(=O)N[C@@H](CCC(N)=O)C(=O)NC(c5ccccc5)c5ccccc5)N4C(=O)[C@@H](NC(=O)c4cc5cc(C(=O)P(=O)(O)O)ccc5[nH]4)C3)nn2)C(C)(C)C)cc1 [Compound 60, (2-(((5S,8S,10aR)-8-(((S)-5-amino-1-(benzhydrylamino)-1,5-dioxopentan-2-yl)carbamoyl)-3-(8-(1-((S)-1-((2S,4R)-4-hydroxy-2-(((S)-1-(4-(4-methylthiazol-5-yl)phenyl)ethyl)carbamoyl)pyrrolidin-1-yl)-3,3-dimethyl-1-oxobutan-2-yl)-1H-1,2,3-triazol-4-yl)octanoyl)-6-oxodecahydropyrrolo[1,2-a][1,5]diazocin-5-yl)carbamoyl)-1H-indole-5-carbonyl)phosphonic acid] | < 6.00 | < 6.00 |  | > 1 |  |
| Cc1ncsc1-c1ccc([C@H](C)NC(=O)[C@@H]2C[C@@H](O)CN2C(=O)[C@@H](n2cc(CC(=O)N3CC[C@H]4CC[C@@H](C(=O)N[C@@H](CCC(N)=O)C(=O)NC(c5ccccc5)c5ccccc5)N4C(=O)[C@@H](NC(=O)c4cc5cc(C(=O)P(=O)(O)O)ccc5[nH]4)C3)nn2)C(C)(C)C)cc1 [Compound 54, (2-(((5S,8S,10aR)-8-(((S)-5-amino-1-(benzhydrylamino)-1,5-dioxopentan-2-yl)carbamoyl)-3-(2-(1-((S)-1-((2S,4R)-4-hydroxy-2-(((S)-1-(4-(4-methylthiazol-5-yl)phenyl)ethyl)carbamoyl)pyrrolidin-1-yl)-3,3-dimethyl-1-oxobutan-2-yl)-1H-1,2,3-triazol-4-yl)acetyl)-6-oxodecahydropyrrolo[1,2-a][1,5]diazocin-5-yl)carbamoyl)-1H-indole-5-carbonyl)phosphonic acid] | < 6.00 | < 6.00 |  | > 1 |  |
| COCCOCCOCCOCCC(=O)N1CC[C@H]2CC[C@@H](C(=O)N[C@@H](CCC(N)=O)COc3cccc(CCCc4cn([C@H](C(=O)N5C[C@H](O)C[C@H]5C(=O)N[C@@H](C)c5ccc(-c6scnc6C)cc5)C(C)(C)C)nn4)c3Cl)N2C(=O)[C@@H](NC(=O)c2cc3cc(C(=O)P(=O)(O)O)ccc3[nH]2)C1 [Compound 30, (2-(((5S,8S,10aR)-8-(((S)-5-amino-1-(2-chloro-3-(3-(1-((S)-1-((2S,4R)-4-hydroxy-2-(((S)-1-(4-(4-methylthiazol-5-yl)phenyl)ethyl)carbamoyl)pyrrolidin-1-yl)-3,3-dimethyl-1-oxobutan-2-yl)-1H-1,2,3-triazol-4-yl)propyl)phenoxy)-5-oxopentan-2-yl)carbamoyl)-6-oxo-3-(2,5,8,11-tetraoxatetradecan-14-oyl)decahydropyrrolo[1,2-a][1,5]diazocin-5-yl)carbamoyl)-1H-indole-5-carbonyl)phosphonic acid] | 7.00 to 8.00 | > 8.00 | > 80 | < 0.01 |  |
| CCS(=O)(=O)c1ccc(CNC(=O)[C@H](CCC(N)=O)NC(=O)[C@@H]2CC[C@@H]3CCN(C(=O)CCCCc4cn([C@@H](C(=O)N5C[C@H](O)C[C@H]5C(=O)N[C@H](C)c5ccc(-c6scnc6C)cc5)C5CCCCC5)nn4)C[C@H](NC(=O)c4cc5cc(C(=O)P(=O)(O)O)ccc5[nH]4)C(=O)N32)cc1 [Compound 20, (2-(((5S,8S,10aR)-8-(((S)-5-amino-1-((4-(ethylsulfonyl)benzyl)amino)-1,5-dioxopentan-2-yl)carbamoyl)-3-(5-(1-((R)-1-cyclohexyl-2-((2S,4R)-4-hydroxy-2-(((R)-1-(4-(4-methylthiazol-5-yl)phenyl)ethyl)carbamoyl)pyrrolidin-1-yl)-2-oxoethyl)-1H-1,2,3-triazol-4-yl)pentanoyl)-6-oxodecahydropyrrolo[1,2-a][1,5]diazocin-5-yl)carbamoyl)-1H-indole-5-carbonyl)phosphonic acid] | > 8.00 | > 8.00 | > 80 | < 0.01 |  |
| Cc1ncsc1-c1ccc([C@H](C)NC(=O)[C@@H]2C[C@@H](O)CN2C(=O)[C@@H](NC(=O)CCCCCC(=O)N2CC[C@H]3CC[C@@H](C(=O)N[C@@H](CCC(N)=O)C(=O)NC(c4ccccc4)c4ccccc4)N3C(=O)[C@@H](NC(=O)c3cc4cc(C(=O)P(=O)(O)O)ccc4[nH]3)C2)C(C)(C)C)cc1 [Compound 50, (2-(((5S,8S,10aR)-8-(((S)-5-amino-1-(benzhydrylamino)-1,5-dioxopentan-2-yl)carbamoyl)-3-(7-(((S)-1-((2S,4R)-4-hydroxy-2-(((S)-1-(4-(4-methylthiazol-5-yl)phenyl)ethyl)carbamoyl)pyrrolidin-1-yl)-3,3-dimethyl-1-oxobutan-2-yl)amino)-7-oxoheptanoyl)-6-oxodecahydropyrrolo[1,2-a][1,5]diazocin-5-yl)carbamoyl)-1H-indole-5-carbonyl)phosphonic acid] | 7.00 to 8.00 | 7.00 to 8.00 |  | 0.1 to 1 |  |
